pIC50: −log10 of the molar value. Where only a bound is given, the exact number is not on record here.

For this test, the target named is Tyrosine-protein kinase ABL1 (Homo sapiens, UniProt P00519). The test can be described thus: Kinase Assay: c-abl: ADP-Glo assay kit was purchased from Promega. Magnesium chloride (MgCl2), bovine serum albumin (BSA), ethylene glycol-bis(p-aminoethyl ether)-N,N,N′,N′-tetraacetic acid (EGTA), triton X-100, 1,4-dithiothreitol (DTT) and dimethyl sulfoxide (DMSO) were purchased from Sigma-Aldrich. HEPES buffer was purchased from Gibco. ABL1 kinase and Abltide were purchased from Signalchem.c-Abl kinase activity was measured by Promega's ADP-Glo™ Assay. In this assay, His-tagged recombinant human ABL1 (0.25 ng/μl) is incubated with 5 μL of compounds (0.5% DMSO), 5 μL of Abltide (0.01 μg/μl) and 5 μL of ATP (25 μM) in buffer (50 mM HEPES, 7.5; 10 mM MgCl2; 1 mM EGTA; 0.05% BSA; 0.01% Triton X-100; 2 mM DTT). The assay was started by incubating the reaction mixture in a 96-well plate at 30° C. for 30-min. After the incubation, 25 μL ADP-Glo reagent was added and the reaction was incubated at room temperature for 40-min to stop the reaction and degrade residual ATP. The ADP product was then converted to ATP by adding 50 μL per well of detection reagent. Luminescence was detected after 30-min room temperature incubation with the Molecular device I3X plate reader. The IC50 values were calculated from a series of percent inhibition values determined at a range of inhibitor concentration using software routines as implemented in the GraphPad Prism 7 software and Sigma Plot 13.0.
Chain of Tyrosine-protein kinase ABL1 (P00519 whole entry): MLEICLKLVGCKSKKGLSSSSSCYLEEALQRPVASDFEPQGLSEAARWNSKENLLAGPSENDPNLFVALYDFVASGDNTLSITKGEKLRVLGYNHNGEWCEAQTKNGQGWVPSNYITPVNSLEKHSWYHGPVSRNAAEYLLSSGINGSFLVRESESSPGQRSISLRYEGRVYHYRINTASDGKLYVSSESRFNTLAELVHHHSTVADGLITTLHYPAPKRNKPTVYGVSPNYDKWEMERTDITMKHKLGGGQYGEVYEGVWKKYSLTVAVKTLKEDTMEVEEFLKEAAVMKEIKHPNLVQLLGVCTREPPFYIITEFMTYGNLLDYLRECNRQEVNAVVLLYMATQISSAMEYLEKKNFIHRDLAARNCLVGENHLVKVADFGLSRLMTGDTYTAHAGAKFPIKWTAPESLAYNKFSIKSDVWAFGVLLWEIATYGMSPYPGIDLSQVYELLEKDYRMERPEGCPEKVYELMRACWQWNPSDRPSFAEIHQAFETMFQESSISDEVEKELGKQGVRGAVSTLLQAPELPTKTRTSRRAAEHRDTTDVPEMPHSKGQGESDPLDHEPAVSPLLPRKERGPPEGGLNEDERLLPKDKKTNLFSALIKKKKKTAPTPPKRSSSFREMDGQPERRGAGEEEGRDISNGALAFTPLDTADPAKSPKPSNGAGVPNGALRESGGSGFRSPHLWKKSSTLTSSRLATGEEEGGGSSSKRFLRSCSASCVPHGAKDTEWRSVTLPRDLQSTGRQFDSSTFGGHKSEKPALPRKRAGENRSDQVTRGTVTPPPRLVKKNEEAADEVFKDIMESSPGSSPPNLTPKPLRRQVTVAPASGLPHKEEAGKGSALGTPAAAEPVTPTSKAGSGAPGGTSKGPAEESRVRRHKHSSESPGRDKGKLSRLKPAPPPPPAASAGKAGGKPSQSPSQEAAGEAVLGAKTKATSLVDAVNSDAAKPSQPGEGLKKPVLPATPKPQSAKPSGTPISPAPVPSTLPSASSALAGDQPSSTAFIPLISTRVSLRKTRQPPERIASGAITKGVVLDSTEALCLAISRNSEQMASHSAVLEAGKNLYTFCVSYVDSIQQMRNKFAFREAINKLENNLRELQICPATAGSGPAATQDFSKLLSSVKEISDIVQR
Broadly, the pIC50 is the IC50 on a negative log10 scale, so that one unit is a factor of ten. With `Cc1cccc(C)c1-c1ccc2nc(NC(=O)[C@@H]3C[C@@H]3F)cn2c1`, the pIC50 is > 8.00.

With `COc1ccncc1-c1ccc2nc(NC(=O)[C@@H]3C[C@@H]3F)cn2c1`, the pIC50 is > 8.00. To `Cc1c(F)cccc1-c1ccc2nc(NC(=O)C3CC3(F)F)cn2c1` (centres undefined) belongs > 8.00; to `Cc1cc2scnc2cc1-c1ccc2nc(NC(=O)[C@@H]3C[C@@H]3F)cn2c1`, > 8.00.

The record behind these values is ChEMBL document CHEMBL5728679, “Imidazopyridinyl compounds and use thereof for treatment of neurodegenerative disorders” (2021).
